In PubChem BioAssay AID1259407 (Chemical Carcinogenesis Research Information System (CCRIS), 2018):
The source made the active and inactive calls. The rule behind the calls is not given here.

System: CCRIS mutagenicity, Ames/micronucleus/aberration tests
Test: CCRIS mutagenicity studies
[1] = Test System: AMES SALMONELLA TYPHIMURIUM, Strain/Indicator: TA98, Metabolic Activation: NONE, Method: PREINCUBATION
[2] = Test System: AMES SALMONELLA TYPHIMURIUM, Strain/Indicator: TA100, Metabolic Activation: NONE, Method: PREINCUBATION
[3] = Test System: AMES SALMONELLA TYPHIMURIUM, Strain/Indicator: TA1535, Metabolic Activation: NONE, Method: PREINCUBATION
[4] = Test System: AMES SALMONELLA TYPHIMURIUM, Strain/Indicator: TA1537, Metabolic Activation: NONE, Method: PREINCUBATION

Measured: mutagenic call

c1ccc2cc(Nc3ccc(Nc4ccc5ccccc5c4)cc3)ccc2c1
inactive: End Point: IN VITRO CHROMOSOMAL ABERRATIONS, Test System: CHINESE HAMSTER OVARY CELLS (CHO), Metabolic Activation: NONE inactive; negative | End Point: IN VITRO CHROMOSOMAL ABERRATIONS, Test System: CHINESE HAMSTER OVARY CELLS (CHO), Metabolic Activation: RAT, LIVER, S-9, AROCLOR 1254 inactive; negative | [1] inactive; negative | Test System: AMES SALMONELLA TYPHIMURIUM, Strain/Indicator: TA98, Metabolic Activation: RAT LIVER S-9, PHENOBARBITAL AND BETA-NAPHTHOFLAVONE, Method: PREINCUBATION inactive; negative | Test System: AMES SALMONELLA TYPHIMURIUM, Strain/Indicator: TA98, Metabolic Activation: RAT, LIVER, S-9, AROCLOR 1254 (30%), Method: PREINCUBATION inactive; negative | Test System: AMES SALMONELLA TYPHIMURIUM, Strain/Indicator: TA100, Metabolic Activation: HAMSTER, LIVER, S-9, AROCLOR 1254 (30%), Method: PREINCUBATION inactive; negative | [2] inactive; negative | Test System: AMES SALMONELLA TYPHIMURIUM, Strain/Indicator: TA100, Metabolic Activation: RAT LIVER S-9, PHENOBARBITAL AND BETA-NAPHTHOFLAVONE, Method: PREINCUBATION inactive; negative | Test System: AMES SALMONELLA TYPHIMURIUM, Strain/Indicator: TA100, Metabolic Activation: RAT, LIVER, S-9, AROCLOR 1254 (30%), Method: PREINCUBATION inactive; negative | [3] inactive; negative | Test System: AMES SALMONELLA TYPHIMURIUM, Strain/Indicator: TA1535, Metabolic Activation: RAT LIVER S-9, PHENOBARBITAL AND BETA-NAPHTHOFLAVONE, Method: PREINCUBATION inactive; negative | [4] inactive; negative | Test System: AMES SALMONELLA TYPHIMURIUM, Strain/Indicator: TA1537, Metabolic Activation: RAT LIVER S-9, PHENOBARBITAL AND BETA-NAPHTHOFLAVONE, Method: PREINCUBATION inactive; negative | Test System: AMES SALMONELLA TYPHIMURIUM, Strain/Indicator: TA1538, Metabolic Activation: NONE, Method: PREINCUBATION inactive; negative | Test System: AMES SALMONELLA TYPHIMURIUM, Strain/Indicator: TA1538, Metabolic Activation: RAT LIVER S-9, PHENOBARBITAL AND BETA-NAPHTHOFLAVONE, Method: PREINCUBATION inactive; negative | Test System: E.COLI, Strain/Indicator: WP2UVRA, Metabolic Activation: NONE, Method: PREINCUBATION inactive; negative | Test System: E.COLI, Strain/Indicator: WP2UVRA, Metabolic Activation: RAT LIVER S-9, PHENOBARBITAL AND BETA-NAPHTHOFLAVONE, Method: PREINCUBATION inactive; negative
active: End Point: IN VITRO CHROMOSOMAL ABERRATIONS, Test System: CHINESE HAMSTER LUNG CELLS (CHL), Metabolic Activation: NONE active; positive (structural changes) | End Point: IN VITRO CHROMOSOMAL ABERRATIONS, Test System: CHL CELLS, Metabolic Activation: S-9 active; positive (structural changes); weak response | End Point: IN VITRO CHROMOSOMAL ABERRATIONS, Test System: CHO CELLS, Metabolic Activation: S-9 active; positive (structural changes) | Test System: AMES SALMONELLA TYPHIMURIUM, Strain/Indicator: TA98, Metabolic Activation: HAMSTER, LIVER, S-9, AROCLOR 1254 (30%), Method: PREINCUBATION active; positive

CN(C)C
inactive: Test System: AMES SALMONELLA TYPHIMURIUM, Strain/Indicator: TA98, Metabolic Activation: HAMSTER, LIVER, S-9, AROCLOR 1254 (10%), Method: PREINCUBATION inactive; negative | [1] inactive; negative | Test System: AMES SALMONELLA TYPHIMURIUM, Strain/Indicator: TA98, Metabolic Activation: RAT, LIVER, S-9, AROCLOR 1254 (10%), Method: PREINCUBATION inactive; negative | Test System: AMES SALMONELLA TYPHIMURIUM, Strain/Indicator: TA100, Metabolic Activation: HAMSTER, LIVER, S-9, AROCLOR 1254 (10%), Method: PREINCUBATION inactive; negative | [2] inactive; negative | Test System: AMES SALMONELLA TYPHIMURIUM, Strain/Indicator: TA100, Metabolic Activation: RAT, LIVER, S-9, AROCLOR 1254 (10%), Method: PREINCUBATION inactive; negative | Test System: AMES SALMONELLA TYPHIMURIUM, Strain/Indicator: TA1535, Metabolic Activation: HAMSTER, LIVER, S-9, AROCLOR 1254 (10%), Method: PREINCUBATION inactive; negative | [3] inactive; negative | Test System: AMES SALMONELLA TYPHIMURIUM, Strain/Indicator: TA1535, Metabolic Activation: RAT, LIVER, S-9, AROCLOR 1254 (10%), Method: PREINCUBATION inactive; negative | Test System: AMES SALMONELLA TYPHIMURIUM, Strain/Indicator: TA1537, Metabolic Activation: HAMSTER, LIVER, S-9, AROCLOR 1254 (10%), Method: PREINCUBATION inactive; negative | [4] inactive; negative | Test System: AMES SALMONELLA TYPHIMURIUM, Strain/Indicator: TA1537, Metabolic Activation: RAT, LIVER, S-9, AROCLOR 1254 (10%), Method: PREINCUBATION inactive; negative
